Experimental data reported in article PMC7248897, “Synthesis, Biological Evaluation and In Silico Studies of Certain Oxindole–Indole Conjugates as Anticancer CDK Inhibitors” (Molecules, 2020).

How the values were obtained:
[1] = tested on: caspase-3; experiment: ELISA of active caspase-3 level in MCF-7 cells; format: cell-based, human; conditions: for fold increase of caspase-3 level: MCF-7, in comparison to the control; for Caspase-3: active caspase-3, MCF-7 cells treated at IC50, 48 h, control 35.92 ± 1.8
Procedure: In addition, their influence on the level of caspase-3 and p53 was estimated in the MCF-7 cell line.
(§1) Assessment of the levels for the proapoptotic markers (Bax, caspase-3, and p53) as well as the antiapoptotic marker (Bcl-2) was carried out through the use of ELISA colorimetric kits in accordance with the manufacturer’s instructions, as mentioned earlier. In addition, the pro-apoptotic potential of indoles 6e and 6f towards MCF-7 cells was evaluated through an FITC Annexin V apoptosis detection kit by flow cytometry, in accordance with the manufacturer’s protocol and referring to the reported procedures.
(§2) The levels of the pro-apoptotic markers (Bax, caspase-3 and p53) as well as the anti-apoptotic marker Bcl-2 were determined using ELISA colorimetric kits per the manufacturer’s instructions. Breast cancer MCF-7 cells were cultured as a monolayer in T-25 flasks and were seeded to attain 30% confluency prior to treatment. Cells were then […]
(§3) of treatment, cells were collected via trypsinization and centrifuged at 10,000 rpm. The pellet was then rinsed with PBS and lysed in RIPA lysis buffer at 4 °C for 45 min, then centrifuged at 14,000 rpm for 20 min to remove the cellular debris. Lysates were then collected and stored at −80 °C for later protein determination using Pierce BCA Protein Assay Kit according to manufacturer’s recommendations.
(§4) The cell lysate was diluted 10 times, and 100 μL ([…]) was added to the wells of four separate microtiter plates for the four ELISA kits that were pre-coated with primary antibodies specific to Bax, Bcl-2, caspase-3 and p53 proteins, respectively. A secondary biotin-linked antibody specific to the protein captured by the primary antibody was further added to bind the captured protein, forming a “sandwich” of specific antibodies around the desired protein in the cell lysate. The streptavidin-HRP complex was then used to bind the biotin-linked secondary antibody through its streptavidin portion. The HRP domain reacted with the added TMB substrate to form a colored product that measured at 450 nm by a plate reader ChroMate-4300 after the reaction was terminated via the addition of stop solution. […]
(§5) Cells were then rinsed in binding buffer and resuspended in 150
(§6) μL of binding buffer with the addition of 1 μL of DAPI (1 μg/μL in PBS). […]

[2] = tested on: MDA-MB-231 breast cancer cell line; experiment: SRB anti-proliferative assay, MDA-MB-231; format: cell-based, human; conditions: for IC50: Homo sapiens, MDA-MB-231, SRB assay, 48 h, mean ± S.D. from 3 separate experiments, read-out: IC50 MDA-MB-231
Procedure: (§7) Cytotoxicity was assessed following the SRB colorimetric assay protocol, as reported earlier.
(§8) 1. Anti-proliferative action toward human breast cell lines […]
(§9) have been obtained from American Type Culture Collection (ATCC). The cells were maintained in Dulbecco's modified Eagle's medium (DMEM) supplemented with 10% heat inactivated fetal calf serum (GIBCO), penicillin (100 U/ml) and streptomycin (100 µg/ml) at 37 °C in humidified atmosphere containing 5% CO2. Cells at a concentration of […]
(§10) The anti-proliferative activity of the tested hybrids 6a-i, 9a-f and 11a, b was measured in vitro using the Sulfo-Rhodamine-B stain (SRB) assay. Briefly, Cells were inoculated in 96-well microtiter plate (5X104 cells/ well) for 24 h before treatment with the tested compounds to allow attachment of cell to the wall of the plate. Tested compounds were dissolved in DMSO at 1 mg/ml immediately before use and diluted to the appropriate volume just before addition to the cell culture. Different concentrations of tested compounds, doxorubicin and sorafenib were added to the cells (three wells were prepared for each individual dose). Cells were incubated with the compounds for 48 h at 37°C and in atmosphere of 5% CO2. After 48 h cells were fixed, washed, and stained for 30 min with 0.4% (w/v) SRB dissolved in 1% acetic acid. Unbound dye was removed by four washes with 1% acetic acid, and attached stain was recovered with Tris-EDTA buffer.
(§11) Color intensity was measured in an ELISA reader. […]

[3] = tested on: Bcl-2; experiment: ELISA of Bcl-2 level in MCF-7 cells; format: cell-based, human; conditions: for fold decrease of Bcl-2 level: MCF-7, vs control; for Bcl-2: MCF-7 cells treated at IC50, 48 h, control 4.65 ± 0.23
Procedure: (§12) Homogeneously, both conjugates were able to decrease the level of the anti-apoptotic Bcl-2 protein by 2.12-, and 1.7-fold, respectively (Table 3). As a more analytical variable, the Bax/Bcl-2 ratio was verified to be amplified by conjugates 6e and 6f, 18- and 12-fold, respectively.
as §1, §2, §3, §4, §5, §6

[4] = tested on: Bax/Bcl-2; experiment: Bax/Bcl-2 ratio in MCF-7 cells; format: cell-based, human; conditions: for fold increase of Bax/Bcl-2 ratio: MCF-7, vs control; for Bax/Bcl-2: MCF-7 cells treated at IC50, control 8.2
Procedure: as §12, §1, §2, §3, §4, §5, §6

[5] = tested on: Bax; experiment: ELISA of Bax level in MCF-7 cells; format: cell-based, human; conditions: for fold increase of Bax level: MCF-7, vs control; for Bax: MCF-7 cells treated at IC50, 48 h, control 38.3 ± 2.2
Procedure: as §12, §1, §2, §3, §4, §5, §6

[6] = tested on: MCF-7 cells; experiment: Annexin V-FITC apoptosis assay; format: cell-based, human; conditions: for fold increase of entire apoptosis percentage: MCF-7, in comparison to the control (DMSO); for percent of Anx V-FITC positive cells (entire apoptosis): MCF-7 cells treated at IC50
Procedure: Anx V-based flow cytometry assay represents a helpful tactic for determining whether death of cells is attributed to programmed apoptosis or to uncontrolled necrosis.
This clearly verifies that cell death resulting from the anti-proliferative action of the target hybrids was attributable to physiological apoptosis and not to nonspecific necrosis.
as §1, with “procedures. […]” for “procedures.”
4. Annexin V-FITC Apoptosis Assay
Phosphatidylserine externalization was assayed using Annexin V-FITC/PI apoptosis detection kit (BD Biosciences, USA) according to the manufacturer’s instructions. Breast cancer MCF-7 cells were cultured to a monolayer then treated with hybrids 6e and 6f at their IC50 concentration. Briefly, cells were then harvested via trypsinization, and rinsed twice in PBS followed by binding buffer. Moreover, cells were re-suspended in 100 μL of binding buffer with the addition of 1 μL of FITC-Annexin V followed by an incubation period of 30 min at 4 °C. Cells were then rinsed in binding buffer and resuspended in 150 μL of binding buffer with the addition of 1 μL of DAPI (1 μg/μL in PBS). Cells were then analyzed using the flow cytometer BD FACS Canto II and the results were interpreted with FlowJo7.6.4 software (Tree Star, Ashland, OR, USA).

[7] = molecular target: T1, CDK2 (Homo sapiens, UniProt P24941); experiment: CDK2 kinase inhibition (Reaction Biology HotSpot); format: biochemical; conditions: single dose of 20 µM; read-out: % Enzyme Inhibitory Activity CDK2
T1 construct: purchased Reaction Biology Corp. (Kinase HotSpot service)
Description: (§13) 5. CDK Kinase Inhibitory Activity
(§14) along with required cofactors.
(§15) Kinase activity data were
(§16) (dimethyl sulfoxide) reactions.

[8] = tested on: MCF-7 breast cancer cell line; experiment: SRB anti-proliferative assay, MCF-7; format: cell-based, human; conditions: for IC50: Homo sapiens, MCF7, SRB assay, 48 h, mean ± S.D. from 3 separate experiments, read-out: IC50 MCF-7; for fold enhancement of anti-proliferative activity compared to 6a: MCF-7, ratio of IC50 values
Procedure: as §7, §8, §9, §10, §11

[9] = molecular target: T2, CDK4 (Homo sapiens, UniProt P11802); experiment: CDK4 kinase inhibition (Reaction Biology HotSpot); format: biochemical; conditions: for inhibition at 20 µM: single dose of 20 µM
T2 construct: purchased Reaction Biology Corp. (Kinase HotSpot service)
Description: as §13, §14, §15, §16

T2 sequence (P11802 whole entry): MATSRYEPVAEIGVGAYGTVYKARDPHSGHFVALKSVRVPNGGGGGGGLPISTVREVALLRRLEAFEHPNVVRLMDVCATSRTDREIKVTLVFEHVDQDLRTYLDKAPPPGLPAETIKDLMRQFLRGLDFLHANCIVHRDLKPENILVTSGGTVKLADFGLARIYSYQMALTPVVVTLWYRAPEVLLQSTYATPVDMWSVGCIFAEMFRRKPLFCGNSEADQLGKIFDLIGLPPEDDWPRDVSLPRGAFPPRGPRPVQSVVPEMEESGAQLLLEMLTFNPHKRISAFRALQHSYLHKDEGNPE
T2 sequence (P24385 whole entry partner): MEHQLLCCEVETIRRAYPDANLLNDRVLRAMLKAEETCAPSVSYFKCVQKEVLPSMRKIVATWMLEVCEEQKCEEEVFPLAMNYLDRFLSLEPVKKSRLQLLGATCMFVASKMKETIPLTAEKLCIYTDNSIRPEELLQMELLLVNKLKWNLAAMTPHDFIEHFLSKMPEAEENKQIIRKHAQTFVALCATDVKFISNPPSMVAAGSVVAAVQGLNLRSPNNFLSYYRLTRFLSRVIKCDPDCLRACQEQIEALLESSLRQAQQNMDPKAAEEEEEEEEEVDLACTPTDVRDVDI

SMILES: COc1ccc2c(c1)/C(=N/NC(=O)c1cc3ccccc3[nH]1)C(=O)N2 [6f]
- fold increase of caspase-3 level [1]: 10.1 fold
- Caspase-3 [1]: 364.15 ± 14.8 pg/mg
- IC50 [2]: 2850 ± 900 nM
- fold potency compared to staurosporine ([2]; MDA-MB-231, ratio of IC50 values): 3.6 fold
- fold decrease of Bcl-2 level [3]: 1.7 fold
- Bcl-2 [3]: 2.73 ± 0.13 ng/mg of Total Protein
- fold increase of Bax/Bcl-2 ratio [4]: 12 fold
- Bax/Bcl-2 [4]: 98.6
- fold increase of Bax level [5]: 7 fold
- Bax [5]: 268.7 ± 9.5 pg/mg of Total Protein
- fold increase of entire apoptosis percentage [6]: 28.60 fold
- percent of Anx V-FITC positive cells (entire apoptosis) [6]: 25.17%
- inhibition at 20 µM [7]: ≥ 50%
- IC50 [8]: 1850 ± 80 nM
- fold enhancement of anti-proliferative activity compared to 6a [8]: 1.7 fold
- inhibition at 20 µM [9]: 14%

SMILES: Cc1ccc2c(c1)/C(=N/NC(=O)c1cc3ccccc3[nH]1)C(=O)N2 [6e]
- fold increase of caspase-3 level [1]: 11.45 fold
- Caspase-3 [1]: 411.70 ± 12.3 pg/mg
- IC50 [2]: 22500 ± 1670 nM
- fold decrease of Bcl-2 level [3]: 2.12 fold
- Bcl-2 [3]: 2.19 ± 0.10 ng/mg of Total Protein
- fold increase of Bax/Bcl-2 ratio [4]: 18 fold
- Bax/Bcl-2 [4]: 148.5
- fold increase of Bax level [5]: 8.5 fold
- Bax [5]: 325.3 ± 12.1 pg/mg of Total Protein
- fold increase of entire apoptosis percentage [6]: 33.75 fold
- percent of Anx V-FITC positive cells (entire apoptosis) [6]: 29.7%
- inhibition at 20 µM [7]: ≥ 50%
- IC50 [8]: 390 ± 50 nM
- fold enhancement of anti-proliferative activity compared to 6a [8]: 8 fold
- IC50 [9]: 1260 nM
- inhibition at 20 µM [9]: 93%
